According to ChEMBL document CHEMBL1201862, “PubChem BioAssay data set” (2004):
Calls of active or inactive are those of the source.

Columns and labels:
[1] = target: T1, Probable nicotinate-nucleotide adenylyltransferase (Staphylococcus aureus (strain N315), UniProt P65502); assay type: functional, Staphylococcus aureus subsp. aureus N315;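 for IC50 Mean: confirmatory dose-response retesting of NadD inhibitor hits first found in an ultra-high-throughput screen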
[2] = target: T1, Probable nicotinate-nucleotide adenylyltransferase; assay type: functional, Staphylococcus aureus subsp. aureus N315; conditions: read-out: IC50_Mean
[3] = target: Tyrosine-protein phosphatase non-receptor type 11 (Homo sapiens, UniProt Q06124); assay: PTPN11 enzyme inhibitors – biochemical, selectivity assay for STEP inhibitor project, dose response (AID 602367); assay type: functional; conditions: read-out: IC50_Mean
[4] = target: Arf-GAP with SH3 domain, ANK repeat and PH domain-containing protein 1 (Homo sapiens, UniProt Q9ULH1); assay type: functional;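 note: biochemical fluorescence polarization dose–response screen measuring inhibition of ASAP1; ASAP1 GAP domain stimulating GTP hydrolysis by truncated human ARF1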
[5] = target: Dual specificity protein phosphatase 3 (Homo sapiens, UniProt P51452); assay: VHR phosphatase inhibition, dose response, selectivity assay for STEP inhibitor project, biochemical (AID 602374); assay type: functional; conditions: read-out: IC50_Mean
[6] = target: Tyrosine-protein phosphatase non-receptor type 5 (Homo sapiens, UniProt P54829); assay: PTPN5 enzyme inhibition – biochemical, fluorescence intensity, uHTS hits, confirmation (AID 602372); assay type: functional; conditions: read-out: IC50_Mean
[7] = target: ADP-ribosylation factor GTPase-activating protein 1 (Rattus norvegicus, UniProt Q62848); assay: Fluorescence polarization-based biochemical high throughput dose response screening assay to identify inhibitors of ADP-ribosylation factor GTPase activating protein 1 (ARFGAP1).; assay type: functional
Sequence of ADP-ribosylation factor GTPase-activating protein 1 (Q62848 whole entry): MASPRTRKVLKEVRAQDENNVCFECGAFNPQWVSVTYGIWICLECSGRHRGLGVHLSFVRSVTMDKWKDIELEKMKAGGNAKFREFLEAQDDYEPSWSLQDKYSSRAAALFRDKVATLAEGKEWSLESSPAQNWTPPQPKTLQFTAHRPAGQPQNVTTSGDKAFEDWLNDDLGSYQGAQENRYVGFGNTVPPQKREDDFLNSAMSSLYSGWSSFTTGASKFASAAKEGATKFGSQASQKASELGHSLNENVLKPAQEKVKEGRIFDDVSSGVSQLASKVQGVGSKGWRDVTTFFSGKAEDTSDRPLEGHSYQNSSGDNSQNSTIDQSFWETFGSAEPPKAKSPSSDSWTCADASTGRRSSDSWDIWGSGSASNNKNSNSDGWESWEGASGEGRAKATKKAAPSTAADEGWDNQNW

T1 sequence (P65502 whole entry): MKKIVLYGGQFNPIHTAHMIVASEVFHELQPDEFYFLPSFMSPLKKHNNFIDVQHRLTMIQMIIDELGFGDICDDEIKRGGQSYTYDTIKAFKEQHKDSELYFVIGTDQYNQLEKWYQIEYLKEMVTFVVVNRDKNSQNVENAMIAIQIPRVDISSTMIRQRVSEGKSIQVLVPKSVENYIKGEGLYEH
Sequence of Dual specificity protein phosphatase 3 (P51452 whole entry): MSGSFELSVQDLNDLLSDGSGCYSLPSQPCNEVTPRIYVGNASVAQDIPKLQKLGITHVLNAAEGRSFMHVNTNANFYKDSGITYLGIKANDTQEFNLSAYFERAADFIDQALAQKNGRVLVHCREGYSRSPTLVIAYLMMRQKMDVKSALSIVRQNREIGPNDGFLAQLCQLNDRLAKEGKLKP
Sequence of Tyrosine-protein phosphatase non-receptor type 11 (Q06124 whole entry, the tested form may be a part): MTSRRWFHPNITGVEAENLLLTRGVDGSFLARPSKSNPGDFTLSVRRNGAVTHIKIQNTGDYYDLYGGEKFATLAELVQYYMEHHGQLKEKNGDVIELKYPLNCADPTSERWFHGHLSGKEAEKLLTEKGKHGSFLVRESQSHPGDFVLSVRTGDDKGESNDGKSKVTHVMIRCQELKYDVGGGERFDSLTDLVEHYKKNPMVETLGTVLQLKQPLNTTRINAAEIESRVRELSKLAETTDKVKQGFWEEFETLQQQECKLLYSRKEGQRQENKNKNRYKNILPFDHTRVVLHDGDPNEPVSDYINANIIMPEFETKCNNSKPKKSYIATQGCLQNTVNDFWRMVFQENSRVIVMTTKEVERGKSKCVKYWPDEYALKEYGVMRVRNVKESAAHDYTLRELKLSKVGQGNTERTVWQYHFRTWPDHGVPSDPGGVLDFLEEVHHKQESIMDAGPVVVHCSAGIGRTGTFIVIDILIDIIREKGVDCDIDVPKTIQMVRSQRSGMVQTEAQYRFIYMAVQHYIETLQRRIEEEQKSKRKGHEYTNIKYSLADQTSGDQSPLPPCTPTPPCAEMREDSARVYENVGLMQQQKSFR
Sequence of Tyrosine-protein phosphatase non-receptor type 5 (P54829 whole entry): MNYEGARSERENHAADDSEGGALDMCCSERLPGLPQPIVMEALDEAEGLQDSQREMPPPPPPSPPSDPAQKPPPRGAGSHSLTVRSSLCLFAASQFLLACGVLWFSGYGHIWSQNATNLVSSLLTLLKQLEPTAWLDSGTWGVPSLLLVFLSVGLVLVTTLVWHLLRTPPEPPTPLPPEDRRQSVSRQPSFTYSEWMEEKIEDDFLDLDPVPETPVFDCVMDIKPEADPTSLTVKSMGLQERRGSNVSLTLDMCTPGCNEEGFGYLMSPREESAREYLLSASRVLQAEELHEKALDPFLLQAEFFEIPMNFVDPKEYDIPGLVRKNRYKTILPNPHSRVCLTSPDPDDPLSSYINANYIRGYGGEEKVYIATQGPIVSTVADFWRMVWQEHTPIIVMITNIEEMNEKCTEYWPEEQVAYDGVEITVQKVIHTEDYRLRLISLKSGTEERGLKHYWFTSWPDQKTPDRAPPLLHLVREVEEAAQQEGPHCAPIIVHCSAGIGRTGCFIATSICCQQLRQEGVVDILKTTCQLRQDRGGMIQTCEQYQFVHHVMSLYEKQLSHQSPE
Sequence of Arf-GAP with SH3 domain, ANK repeat and PH domain-containing protein 1 (Q9ULH1 whole entry, the tested form may be a part): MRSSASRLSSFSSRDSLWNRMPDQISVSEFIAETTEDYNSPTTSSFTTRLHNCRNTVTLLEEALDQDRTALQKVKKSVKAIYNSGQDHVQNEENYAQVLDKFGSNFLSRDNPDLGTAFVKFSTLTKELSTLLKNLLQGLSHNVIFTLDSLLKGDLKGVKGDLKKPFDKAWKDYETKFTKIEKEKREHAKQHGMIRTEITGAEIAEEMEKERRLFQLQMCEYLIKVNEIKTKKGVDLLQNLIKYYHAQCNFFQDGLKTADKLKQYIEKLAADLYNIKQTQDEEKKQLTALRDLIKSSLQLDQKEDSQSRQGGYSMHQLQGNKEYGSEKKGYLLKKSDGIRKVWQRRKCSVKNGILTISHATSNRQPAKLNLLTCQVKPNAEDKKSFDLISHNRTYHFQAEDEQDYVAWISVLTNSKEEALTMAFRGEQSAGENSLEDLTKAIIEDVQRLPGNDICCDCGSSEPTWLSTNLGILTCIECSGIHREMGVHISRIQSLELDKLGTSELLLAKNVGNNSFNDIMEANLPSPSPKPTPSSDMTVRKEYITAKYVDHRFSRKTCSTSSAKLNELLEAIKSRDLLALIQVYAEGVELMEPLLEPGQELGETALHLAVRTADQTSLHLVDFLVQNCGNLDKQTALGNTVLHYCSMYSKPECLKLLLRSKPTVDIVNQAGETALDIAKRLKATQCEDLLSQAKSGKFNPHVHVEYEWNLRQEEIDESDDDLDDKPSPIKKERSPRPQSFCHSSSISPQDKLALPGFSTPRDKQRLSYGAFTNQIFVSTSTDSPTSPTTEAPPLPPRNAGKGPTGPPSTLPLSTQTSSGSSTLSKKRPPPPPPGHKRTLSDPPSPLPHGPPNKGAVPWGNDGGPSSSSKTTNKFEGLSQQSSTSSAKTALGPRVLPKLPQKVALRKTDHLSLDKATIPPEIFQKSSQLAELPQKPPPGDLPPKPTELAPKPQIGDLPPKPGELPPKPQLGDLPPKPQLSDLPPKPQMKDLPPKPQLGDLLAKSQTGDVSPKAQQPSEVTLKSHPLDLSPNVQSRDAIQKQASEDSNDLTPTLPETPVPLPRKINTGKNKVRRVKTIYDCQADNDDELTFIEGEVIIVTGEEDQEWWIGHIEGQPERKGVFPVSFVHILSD

N#Cc1c(SCc2c(Cl)cccc2Cl)nc(N)[nH]c1=S
IC50 [1]: 13 µM (active) | IC50 [2]: 32.9 µM (active)

NC(=NOC(=O)c1cccc2ccccc12)c1cccc([N+](=O)[O-])c1
IC50 [3]: 5.9 µM (active) | IC50 [4]: 20.9 µM (inactive) | IC50 [5]: 5.16 µM (active) | IC50 [6]: 29.7 µM (inactive)

CCC(=O)Nc1ccc(NC(=O)CSc2nnnn2-c2ccc3c(c2)OCCO3)cc1
IC50 [7]: 40.7 µM (inactive)
